Results reported in US7217688B2, “Methods and compositions for derepression of IAP-inhibited caspase” (The Burnham Institute, priority 2005, dated 2007).
Values belong to the molecule of their own block, whether it stands above or below them. Square brackets hold non-standard residues; d marks the D form. Ends that are not written are not given here. Peptide text beside a SMILES is read from it. * marks the point of attachment. 5TAMRA = CN(C)c1ccc2c(c1)Oc1cc(N(C)C)ccc1C21OC(=O)c2cc(C(=O)*)ccc21; Phe(4-Cl) = N[C@@H](Cc1ccc(Cl)cc1)C(=O)O; 2Nal = N[C@@H](Cc1ccc2ccccc2c1)C(=O)O; Fmoc = O=C(OCC1c2ccccc2-c2ccccc21)*; 2Thi = N[C@@H](Cc1cccs1)C(=O)O

How the values were obtained:
GST-BIR2 (XIAP fragment) = assay: fluorescence polarization binding of rhodamine-SMAC
Method: Assays were run in 50 mM Tris @ pH 7.2/100 mM NaCl/0.1% BSA.

full length XIAP = full length XIAP (Homo sapiens, UniProt P98170); assay: potency of IAP antagonists at restoring caspase-3 activity / SMAC competition assay (Table VIII); conditions: for EC50: amount of compound necessary to restore caspase-3 activity to 50% of Vmax; for Relative Potency: fold relative to SMAC AVPI tetrapeptide
[1] = test system: NCI panel of 60 tumor cell lines; assay: NCI panel of 60 tumor cell lines, protein-based colorimetric assay; parameters: species or system human; conditions: 48 hours
Method: Selected polyphenylurea compounds were tested on the National Cancer Institute (NCI) panel of 60 tumor cell lines (see FIG. 28a and FIG. 29).

[2] = test system: PPC1 prostate cancer cells; assay: PPC1 tumor xenograft; assay type: in vivo, Balb/C nu-/nu- mice; conditions: 30 mg/kg i.p. for 2 or 3 days
From the text: Similar data was obtained using TPI 1396-22 (see FIG. 33a and 33b). […] In FIG. 33b, the mice were sacrificed at day 19 and the tumors excised and weighed.

XIAP-inhibited caspase-3 = biological target: T1, XIAP-inhibited caspase-3 (Homo sapiens, UniProt P98170); assay: caspase derepression assay (XIAP-inhibited caspase-3, Ac-DEVD-AFC hydrolysis); assay type: biochemical; conditions: for Activity (relative caspase-3 activity, ratio of Vmax with compound to Vmax of caspase-3 and XIAP controls): Table X, R2 = L-Proline; for activity in the derepression assay using full length XIAP: active / inactive
T1 construct: in the derepression assay using full length XIAP; made in house; host or cells: bacteria
Method: Caspase activity was assayed by release of 7-amino-4-trifluoromethyl-coumarin (AFC) from Ac-DEVD-AFC synthetic peptide using a Molecular Devices Spectromax 340 (see Zhou et al., J. Biol. Chem. 272:7797–7800 (1997)). […] The ratio of Vmax for hydrolysis of Ac-DEVD-AFC in the presence and absence of the candidate mixture was calculated and used to identify those that contain an agent that derepresses an IAP-inhibited caspase.
Screening of each mixture from the DCR390, TPI 1239 or TPI 1328 library, respectively, using the above described assay was carried out as follows. Each mixture was aliquoted in a 25 microliter volume and in duplicate to a well of a 96 well microtiter plate. […] Fluorescence of liberated AFC was immediately detected from each well for 30 minutes at 30 second intervals. The Vmax for hydrolysis of AC-DEVD-AFC from each well was measured using the softmax software package. Results of the screen for the DCR390 library are shown in Table I. Sets of mixtures having the same position fixed with different respective amino acids are arranged in 6 sections identified with the position number. […] The mixture in each section are arranged in descending order according to apparent velocity in the second column.
Briefly, recombinant proteins were produced in bacteria and purified as described, for example, in Deveraux et al., Nature 388:300–304(1997). […] Generation of fluorogenic AFC (7-amino-4-trifluoromethyl coumarin) product was measured with a spectrofluorometric plate reader in kinetic mode for 30 minutes at 37° C. using excitation and emission wavelengths of 405 nm and 510 nm, respectively. […] Control reactions lacked XIAP, and all assays were conducted in the linear range of substrate hydrolysis to avoid substrate depletion artifacts.

[3] = test system: ALVA31 prostate cancer cells; assay: ALVA31 cell viability (XTT dye-reduction and trypan blue exclusion); assay type: cell-based; conditions: peptides 40 μM, VP-16 100 μM, 24 hrs
Method: The in vivo effects of TPI 792-33 or TPI 792-35, either individually or in combination with the cytotoxic anticancer drug VP-16 (etoposide), on derepression of XIAP-inhibited caspase and viability of ALVA31 cells was determined as follows. ALVA31 prostate cancer cells were seeded onto 96 well plates (10^4 cells/well) in 100 μL RPMI containing 2.5% fetal bovine serum (FBS). […] After another 24 hrs incubation, cell viability was measured by the XTT dye-reduction assay (Roche, Molecular Biochemicals; Indianapolis, Ind.) and trypan blue dye exclusion assay.

[4] = test system: NCI panel of 60 tumor cell lines; conditions: same assay, comparison drug; cited from earlier work
GST-XIAP BIR2 = assay: binding of XIAP-BIR2 to biotinylated peptides on Neutravidin plates; conditions: biotinylated peptides adsorbed to Neutravidin-coated plates
From the text: Bound GST polypeptides were detected with an anti-GST antibody.

[5] = test system: mouse embryo fibroblasts (MEFs); assay: mechanism-based toxicity in MEFs from XIAP -/- and wild type mice (MTT); assay type: cell-based; conditions: MEFs with or without SV40 large T antigen
Method: Cells were either tested directly at low passage (FIGS. 38A and C) or after transformation by infection with a retrovirus encoding SV40 large T antigen (FIGS. 38B and D). […] Cell viability was measured by MTT assay, expressing data as a percentage relative to control, untreated cells. Data shown in FIG. 38A–D represent mean±standard deviation of triplicate determinations.

[6] = test system: normal bone marrow mononuclear cells; assay: normal bone marrow cell toxicity (Annexin V); assay type: cell-based; conditions: 5 μM, 20 hours
Method: After incubation, cells were washed, stained with FITC-conjugated Annexin V antibody and propidium iodide, and fluorescence measured by flow cytometry as described above.

Jurkat leukemia cells = assay: Jurkat cell death (Annexin V / propidium iodide flow cytometry); assay type: cell-based; conditions: for cells killed: one day treatment
Method: The following assay was used to test the ability of individual compounds from the TPI 1396 and TPI 1391 libraries to induce apoptosis of cultured tumor cell lines. Each of the compounds listed in Table IX was individually added to Jurkat leukemia cells (6.25×10^5 cells/mL) in RPMI containing 2.5% FBS at various concentrations for 20 hours. After incubation, cells were washed and stained with FITC-conjugated Annexin V antibody and propidium iodide (Biovision; Mountain View, Calif.). Cells were incubated for 20 minutes at room temperature in the dark and fluorescence was measured by flow cytometry (FACScan, Immunocytometry system; Becton-Dickinson; San Jose, Calif.). Cells staining positive for Annexin V were deemed non-viable.

[7] = 5 μM (first column headed 5), 20 hours
[8] = 5 μM (second column headed 5), 20 hours

full length XIAP, sequence (P98170 whole entry): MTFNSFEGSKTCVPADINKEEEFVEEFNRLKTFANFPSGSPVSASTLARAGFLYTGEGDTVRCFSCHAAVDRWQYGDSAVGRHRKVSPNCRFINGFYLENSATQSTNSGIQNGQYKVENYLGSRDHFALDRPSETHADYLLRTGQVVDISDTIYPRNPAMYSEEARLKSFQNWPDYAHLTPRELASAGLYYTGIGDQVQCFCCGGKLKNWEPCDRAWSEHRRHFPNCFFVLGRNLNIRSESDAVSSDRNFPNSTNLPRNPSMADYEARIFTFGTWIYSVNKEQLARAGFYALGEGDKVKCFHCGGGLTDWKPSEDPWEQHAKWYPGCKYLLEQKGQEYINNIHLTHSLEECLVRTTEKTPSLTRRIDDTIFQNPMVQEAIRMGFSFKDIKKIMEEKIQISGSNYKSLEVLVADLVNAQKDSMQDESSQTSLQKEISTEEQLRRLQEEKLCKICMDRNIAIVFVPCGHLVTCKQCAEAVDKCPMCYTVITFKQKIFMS
T1 sequence (P98170 whole entry): as above
GST-XIAP BIR2, sequence (P98170 124-240 limits assumed): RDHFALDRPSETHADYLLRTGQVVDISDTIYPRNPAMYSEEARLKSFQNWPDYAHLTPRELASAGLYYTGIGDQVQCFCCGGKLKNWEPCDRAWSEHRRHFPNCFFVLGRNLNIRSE

Molecule: CC[C@H](C)[C@H](NC(=O)[C@@H]1CCCN1C(=O)[C@@H](NC(=O)[C@H](C)N)C(C)C)C(=O)N[C@@H](C)C(=O)N[C@@H](CCC(N)=O)C(=O)N[C@@H](CCCCNC(=O)c1ccc2c(c1)C(=O)OC21c2ccc(N(C)C)cc2Oc2cc(N(C)C)ccc21)C(N)=O [Rhodamine-SMAC] (H-AVPIAQK(5TAMRA)-NH2; N-terminus and C-terminus assumed)
Kd (GST-BIR2 (XIAP fragment)): 20 µM

Molecule: COc1ccc(CCN2CCCC2CN(C(=O)Nc2ccccc2)C(CNC(=O)Nc2ccccc2)Cc2ccc3ccccc3c2)cc1 (centres unmarked) [TPI 1396-22]
EC50 (full length XIAP): 45.3 µM
Relative Potency (full length XIAP): 2.8
average LD50 for the 60 cell lines [1]: 11 ± 2.6 µM
median LD50 for the 60 cell lines [1]: 22 µM
tumor growth / tumor size [2]: significantly slowed the rate of growth
Activity (relative caspase-3 activity, ratio of Vmax with compound to Vmax of caspase-3 and XIAP controls) (XIAP-inhibited caspase-3): 3.3
activity in the derepression assay using full length XIAP (XIAP-inhibited caspase-3): active

Molecule: COc1cc([C@@H]2c3cc4c(cc3[C@@H](O[C@@H]3O[C@@H]5CO[C@@H](C)O[C@H]5[C@H](O)[C@H]3O)[C@H]3COC(=O)[C@H]23)OCO4)cc(OC)c1O [VP-16, etoposide]
effect on cell viability, agent alone [3]: essentially no effect
mean LD50 in the NCI panel of 60 tumor cell lines [4]: 200 ± 2.5 µM

Molecule: TPI 1554-1: biotinylated TPI 1453-1 ([2Thi][2Nal][Phe(4-Cl)]K(Fmoc); also: biotinylated (site not given here))
binding to XIAP-BIR2 (GST-XIAP BIR2): comparable to the binding of SMAC peptides

Molecule: TPI 1554-2: biotinylated TPI 1453-6 ([2Thi][2Nal][dK](Fmoc)K(Fmoc); also: biotinylated (site not given here))
binding to XIAP-BIR2 (GST-XIAP BIR2): comparable to the binding of SMAC peptides

Molecule: COc1cccc2c1C(=O)c1c(O)c3c(c(O)c1C2=O)C[C@@](O)(C(C)=O)C[C@@H]3O[C@H]1C[C@H](N)[C@H](O)[C@H](C)O1 [daunorubicin]
selectivity for transformed versus non-transformed cells [5]: do not display selectivity for transformed cells

EC50 (full length XIAP): 25.1 µM
Relative Potency (full length XIAP): 5
Molecule: CC(C)CC1CN(C(CNCc2ccccc2)Cc2ccc3ccccc3c2)C(=O)C(=O)N1CCc1cccc(C(F)(F)F)c1 (centres unmarked) [TPI 1391-28]
toxicity to normal bone marrow cells [6]: little toxicity
% nonviable cells (Jurkat leukemia cells; 1 μM, 20 hours): 19%
% nonviable cells (Jurkat leukemia cells; [7]): 12%
% nonviable cells (Jurkat leukemia cells; [8]): 28%
cells killed (Jurkat leukemia cells; 5 μM): about 45%
cells killed (Jurkat leukemia cells; 8 μM): ~80%
% nonviable cells (Jurkat leukemia cells; 10 μM, 20 hours): 55%
% nonviable cells (Jurkat leukemia cells; 25 μM, 20 hours): 87%
% nonviable cells (Jurkat leukemia cells; 50 μM, 20 hours): 91%
EC50 (Jurkat leukemia cells; one-day exposure, 0 to 20 μM, read-out: EC50 for killing Jurkat leukemia cells): ~6.5 µM

EC50 (full length XIAP): 33.6 µM
Relative Potency (full length XIAP): 3.7
Molecule: CCCCCCCN1C(=O)C(=O)N(C(CCCC)CNCc2ccccc2)CC1Cc1ccc2ccccc2c1 (centres unmarked) [TPI 1391-21]
% nonviable cells (Jurkat leukemia cells; 1 μM, 20 hours): 16%
% nonviable cells (Jurkat leukemia cells; [7]): 11%
% nonviable cells (Jurkat leukemia cells; [8]): 18%
% nonviable cells (Jurkat leukemia cells; 10 μM, 20 hours): 44%
% nonviable cells (Jurkat leukemia cells; 25 μM, 20 hours): 91%
% nonviable cells (Jurkat leukemia cells; 50 μM, 20 hours): 94%

Molecule: CN(CCCCC(CNC(=O)Nc1ccccc1)N(CC1CCCN1CCC12CC3CC(CC(C3)C1)C2)C(=O)Nc1ccccc1)C(=O)Nc1ccccc1 (centres unmarked) [TPI 1396-11]
average LD50 for the 60 cell lines [1]: 10 ± 2.8 µM
median LD50 for the 60 cell lines [1]: 17 µM
% nonviable cells (Jurkat leukemia cells; 1 µM): 14%
% nonviable cells (Jurkat leukemia cells; 10 μM): 90%
% nonviable cells (Jurkat leukemia cells; 25 µM): 90%
% nonviable cells (Jurkat leukemia cells; 50 µM): 90%
Activity (relative caspase-3 activity, ratio of Vmax with compound to Vmax of caspase-3 and XIAP controls) (XIAP-inhibited caspase-3): 2.6
activity in the derepression assay using full length XIAP (XIAP-inhibited caspase-3): active
